Measurements as given in the supplement of paper PMC10307832.

Assays:
Assay in all cases: relative viability (nuclei count vs DMSO), 5 days (fraction); higher = more cells survive
[1] = system: NCI-H358
Outline: (§1)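 Values are medians from duplicate plates. Each reflects relative viability, defined as the nuclei count of treated wells over that of vehicle wells. Lung cancer cell lines in 1536-well plates were pin-tool dosed one day after seeding with one drug alone or with a fixed anchor-drug dose plus five library-drug doses (not always all listed) in √10 steps, then fixed, stained and imaged at 4× after 5 days.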

[2] = system: NCI-H1792
Outline: as §1

[3] = system: NCI-H460
Outline: as §1

[4] = system: HCC-15
Outline: as §1

[5] = system: NCI-H2228
Outline: as §1

[6] = system: LC-2-ad
Outline: as §1

[7] = system: NCI-H1755
Outline: as §1

[8] = system: NCI-H2347
Outline: as §1

[9] = system: RERF-LC-KJ
Outline: as §1

[10] = system: NCI-H1915
Outline: as §1

[11] = system: PC-3 [JPC-3]
Outline: as §1

[12] = system: LOU-NH91
Outline: as §1

[13] = system: NCI-H1734
Outline: as §1

[14] = system: NCI-H2126
Outline: as §1

[15] = system: NCI-H647
Outline: as §1

[16] = system: SW 1573
Outline: as §1

[17] = system: HCC-78
Outline: as §1

[18] = system: SK-LU-1
Outline: as §1

[19] = system: HOP-62
Outline: as §1

[20] = system: A-427
Outline: as §1

[21] = system: LXF-289
Outline: as §1

[22] = system: NCI-H1975
Outline: as §1

COc1cc(N2CCC(C(N)=O)CC2)ccc1Nc1nc(N)c(Cl)c(Nc2ccccc2S(=O)(=O)C(C)C)n1 [HG-5-88-01] + Cc1nc(NC(=O)N2CCC[C@H]2C(N)=O)sc1-c1ccnc(C(C)(C)C(F)(F)F)c1 [Alpelisib] (partner 2 µM)
relative viability ([1]; first compound 0.04 µM): 0.845 | relative viability ([1]; first compound 0.1265 µM): 0.692 | relative viability ([1]; first compound 0.4 µM): 0.497 | relative viability ([1]; first compound 1.265 µM): 0.432 | relative viability ([1]; first compound 4 µM): 0.323 | relative viability ([2]; first compound 0.04 µM): 0.874 | relative viability ([2]; first compound 0.1265 µM): 0.686 | relative viability ([2]; first compound 0.4 µM): 0.654 | relative viability ([2]; first compound 1.265 µM): 0.635 | relative viability ([2]; first compound 4 µM): 0.949 | relative viability ([3]; first compound 0.04 µM): 0.466 | relative viability ([3]; first compound 0.1265 µM): 0.461 | relative viability ([3]; first compound 0.4 µM): 0.461 | relative viability ([3]; first compound 1.265 µM): 0.335 | relative viability ([3]; first compound 4 µM): 0.304 | relative viability ([4]; first compound 0.04 µM): 0.925 | relative viability ([4]; first compound 0.1265 µM): 0.865 | relative viability ([4]; first compound 0.4 µM): 0.936 | relative viability ([4]; first compound 1.265 µM): 0.832 | relative viability ([4]; first compound 4 µM): 0.775 | relative viability ([5]; first compound 0.04 µM): 0.242 | relative viability ([5]; first compound 0.1265 µM): 0.297 | relative viability ([5]; first compound 0.4 µM): 0.324 | relative viability ([5]; first compound 1.265 µM): 0.224 | relative viability ([5]; first compound 4 µM): 0.476 | relative viability ([6]; first compound 0.04 µM): 0.91 | relative viability ([6]; first compound 0.1265 µM): 0.924 | relative viability ([6]; first compound 0.4 µM): 0.84 | relative viability ([6]; first compound 1.265 µM): 0.856 | relative viability ([6]; first compound 4 µM): 0.871 | relative viability ([7]; first compound 0.1265 µM): 0.938 | relative viability ([7]; first compound 0.4 µM): 0.912 | relative viability ([7]; first compound 1.265 µM): 0.897 | relative viability ([7]; first compound 4 µM): 1.05 | relative viability ([8]; first compound 0.04 µM): 1.09 | relative viability ([8]; first compound 0.1265 µM): 1.14 | relative viability ([8]; first compound 0.4 µM): 1.1 | relative viability ([8]; first compound 1.265 µM): 0.984 | relative viability ([8]; first compound 4 µM): 0.973 | relative viability ([9]; first compound 0.04 µM): 0.838 | relative viability ([9]; first compound 0.1265 µM): 0.675 | relative viability ([9]; first compound 0.4 µM): 0.935 | relative viability ([9]; first compound 1.265 µM): 0.551 | relative viability ([9]; first compound 4 µM): 0.874 | relative viability ([10]; first compound 0.04 µM): 1.08 | relative viability ([10]; first compound 0.1265 µM): 1.03 | relative viability ([10]; first compound 0.4 µM): 1.12 | relative viability ([10]; first compound 1.265 µM): 1.04 | relative viability ([10]; first compound 4 µM): 0.958 | relative viability ([11]; first compound 0.04 µM): 0.965 | relative viability ([11]; first compound 0.1265 µM): 1.04 | relative viability ([11]; first compound 0.4 µM): 1 | relative viability ([11]; first compound 1.265 µM): 0.971 | relative viability ([11]; first compound 4 µM): 0.825 | relative viability ([12]; first compound 0.04 µM): 0.713 | relative viability ([12]; first compound 0.1265 µM): 0.67 | relative viability ([12]; first compound 0.4 µM): 0.659 | relative viability ([12]; first compound 1.265 µM): 0.545 | relative viability ([12]; first compound 4 µM): 0.528 | relative viability ([13]; first compound 0.04 µM): 0.633 | relative viability ([13]; first compound 0.1265 µM): 0.657 | relative viability ([13]; first compound 0.4 µM): 0.727 | relative viability ([13]; first compound 1.265 µM): 0.713 | relative viability ([13]; first compound 4 µM): 0.799 | relative viability ([14]; first compound 0.04 µM): 0.81 | relative viability ([14]; first compound 0.1265 µM): 0.79 | relative viability ([14]; first compound 0.4 µM): 0.774 | relative viability ([14]; first compound 1.265 µM): 0.681 | relative viability ([14]; first compound 4 µM): 0.716 | relative viability ([15]; first compound 0.04 µM): 1.09 | relative viability ([15]; first compound 0.1265 µM): 1.15 | relative viability ([15]; first compound 1.265 µM): 1.09 | relative viability ([15]; first compound 4 µM): 1.4 | relative viability ([16]; first compound 0.04 µM): 0.866 | relative viability ([16]; first compound 0.1265 µM): 0.571 | relative viability ([16]; first compound 0.4 µM): 0.866 | relative viability ([16]; first compound 1.265 µM): 0.632 | relative viability ([16]; first compound 4 µM): 0.605 | relative viability ([17]; first compound 0.04 µM): 0.352 | relative viability ([17]; first compound 0.1265 µM): 0.304 | relative viability ([17]; first compound 0.4 µM): 0.263 | relative viability ([17]; first compound 1.265 µM): 0.207 | relative viability ([17]; first compound 4 µM): 0.241 | relative viability ([18]; first compound 0.04 µM): 1.18 | relative viability ([18]; first compound 0.1265 µM): 0.988 | relative viability ([18]; first compound 0.4 µM): 0.895 | relative viability ([18]; first compound 1.265 µM): 0.966 | relative viability ([18]; first compound 4 µM): 0.797 | relative viability ([19]; first compound 0.04 µM): 0.835 | relative viability ([19]; first compound 0.1265 µM): 0.924 | relative viability ([19]; first compound 0.4 µM): 0.999 | relative viability ([19]; first compound 1.265 µM): 0.981 | relative viability ([19]; first compound 4 µM): 1.41 | relative viability ([20]; first compound 0.04 µM): 1.07 | relative viability ([20]; first compound 0.1265 µM): 1.12 | relative viability ([20]; first compound 0.4 µM): 1.16 | relative viability ([20]; first compound 1.265 µM): 1.12 | relative viability ([20]; first compound 4 µM): 0.959 | relative viability ([21]; first compound 0.04 µM): 1.05 | relative viability ([21]; first compound 0.1265 µM): 1.04 | relative viability ([21]; first compound 0.4 µM): 1 | relative viability ([21]; first compound 1.265 µM): 1.08 | relative viability ([21]; first compound 4 µM): 0.968 | relative viability ([22]; first compound 0.04 µM): 0.597 | relative viability ([22]; first compound 0.1265 µM): 0.62 | relative viability ([22]; first compound 0.4 µM): 0.555 | relative viability ([22]; first compound 1.265 µM): 0.516 | relative viability ([22]; first compound 4 µM): 0.264
